Experimental data taken from PubChem BioAssay AID248 (DTP/NCI, 2004).
Several values for one entry are separate records, joined by “and”; a condition that tells them apart may be missing. Equal values may be shown once. Toxic doses and inconclusive results are not listed. No stated cut-off is given here; in the data, active means T/C of 150% or more; inactive means T/C below 125%.

Test system: L1210 leukemia ip in BDF1 mice, survival T/C
Assay: NCI In Vivo Anticancer Drug Screen. Data for tumor model L1210 Leukemia (intraperitoneal) in B6D2F1 (BDF1) mice
Details: endpoint: mean survival time, higher = longer survival
Summary of the method: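 Tumor was transplanted into mice, which were then dosed with test compound or vehicle alone. Survival was recorded for each group, and the treated figure was expressed relative to the control figure.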

[1] = dose: 100.0 mg/kg/injection, schedule: Q01DX009 (ip), vehicle: saline
[2] = dose: 200.0 mg/kg/injection, schedule: Q01DX009 (ip), vehicle: saline
[3] = dose: 400.0 mg/kg/injection, schedule: Q01DX009 (ip), vehicle: saline
[4] = dose: 100.0 mg/kg/injection, schedule: Q01DX001 (ip), vehicle: saline
[5] = dose: 200.0 mg/kg/injection, schedule: Q01DX001 (ip), vehicle: saline
[6] = dose: 400.0 mg/kg/injection, schedule: Q01DX001 (ip), vehicle: saline
[7] = dose: 100.0 mg/kg/injection, schedule: Q04DX003 (ip), vehicle: saline with Tween-80
[8] = dose: 200.0 mg/kg/injection, schedule: Q04DX003 (ip), vehicle: saline with Tween-80
[9] = dose: 400.0 mg/kg/injection, schedule: Q04DX003 (ip), vehicle: saline with Tween-80
[10] = dose: 100.0 mg/kg/injection, schedule: Q04DX003 (ip), vehicle: saline
[11] = dose: 200.0 mg/kg/injection, schedule: Q04DX003 (ip), vehicle: saline
[12] = dose: 400.0 mg/kg/injection, schedule: Q04DX003 (ip), vehicle: saline
[13] = dose: 100.0 mg/kg/injection, schedule: Q01DX009 (ip), vehicle: saline with Tween-80
[14] = dose: 200.0 mg/kg/injection, schedule: Q01DX009 (ip), vehicle: saline with Tween-80

Measured: T/C

C=C(C)C(=O)N(C)C
inactive: [1] 105 % of control | [2] 113 % of control | [3] 103 % of control

Clc1ccc(C2=Nc3cccc4cccc(c34)N2)cc1Cl
inactive: dose: 15.0 mg/kg/injection, schedule: Q01DX Z (ip), vehicle: saline 97 % of control | dose: 30.0 mg/kg/injection, schedule: Q01DX Z (ip), vehicle: saline 105 % of control | dose: 60.0 mg/kg/injection, schedule: Q01DX Z (ip), vehicle: saline 100 % of control | dose: 60.0 mg/kg/injection, schedule: Q01DX Z (oral), vehicle: saline 91 % of control | dose: 120.0 mg/kg/injection, schedule: Q01DX Z (oral), vehicle: saline 96 % of control | dose: 240.0 mg/kg/injection, schedule: Q01DX Z (oral), vehicle: saline 94 % of control | dose: 480.0 mg/kg/injection, schedule: Q01DX Z (oral), vehicle: saline 98 % of control

CC1CC(C)OP(Oc2ccccc2)O1 (centres undefined)
inactive: [4] 110 % of control | [5] 96 % of control | [6] 98 % of control

O=C(Nc1cccc(O)c1)OCCCl
inactive: dose: 100.0 mg/kg/injection, schedule: Q01DX001 (ip), vehicle: saline + alcohol 105 % of control | dose: 200.0 mg/kg/injection, schedule: Q01DX001 (ip), vehicle: saline + alcohol 102 % of control | dose: 400.0 mg/kg/injection, schedule: Q01DX001 (ip), vehicle: saline + alcohol 92 % of control

CCCCOP(=O)(OCCCC)SCl
inactive: dose: 100.0 mg/kg/injection, schedule: Q04DX002 (ip), vehicle: saline with Tween-80 95 % of control | dose: 200.0 mg/kg/injection, schedule: Q04DX002 (ip), vehicle: saline with Tween-80 92 % of control

CCOC(=O)CSC#N
inactive: [4] 101 % of control | dose: 100.0 mg/kg/injection, schedule: Q04DX002 (ip), vehicle: Klucel (hydroxypropylcellulose) (HPC) 95 % of control | [5] 101 % of control | dose: 200.0 mg/kg/injection, schedule: Q04DX002 (ip), vehicle: Klucel (hydroxypropylcellulose) (HPC) 91 % of control | [6] 95 % of control | dose: 400.0 mg/kg/injection, schedule: Q04DX002 (ip), vehicle: Klucel (hydroxypropylcellulose) (HPC) 107 % of control

O=C(O)c1cccc(C(=O)c2ccccc2)c1O
inactive: dose: 100.0 mg/kg/injection, schedule: Q01DX001 (ip), vehicle: carboxymethylcellulose (CMC) 97 % of control | dose: 200.0 mg/kg/injection, schedule: Q01DX001 (ip), vehicle: carboxymethylcellulose (CMC) 100 % of control | dose: 400.0 mg/kg/injection, schedule: Q01DX001 (ip), vehicle: carboxymethylcellulose (CMC) 92 % of control

CCCCCCCCCCCCCCCCN(C)S(=O)(=O)c1ccc(Cl)c(C(F)(F)F)c1
inactive: dose: 100.0 mg/kg/injection, schedule: Q04DX003 (ip), vehicle: Klucel (hydroxypropylcellulose) (HPC) 98 % of control | dose: 200.0 mg/kg/injection, schedule: Q04DX003 (ip), vehicle: Klucel (hydroxypropylcellulose) (HPC) 101 % of control | dose: 400.0 mg/kg/injection, schedule: Q04DX003 (ip), vehicle: Klucel (hydroxypropylcellulose) (HPC) 96 % of control

CC(=O)C1=C(C)NC(C)=C(C(C)=O)C1c1ccccc1
inactive: [7] 96 % of control | [8] 96 % of control | [9] 98 % of control

O=S1(=O)CC23C=CC=CC2(CCCC3)C1Cl (centres undefined)
inactive: dose: 25.0 mg/kg/injection, schedule: Q01DX009 (ip), vehicle: Klucel (hydroxypropylcellulose) (HPC) 94 % of control | dose: 50.0 mg/kg/injection, schedule: Q01DX009 (ip), vehicle: Klucel (hydroxypropylcellulose) (HPC) 102 % of control | dose: 100.0 mg/kg/injection, schedule: Q01DX009 (ip), vehicle: Klucel (hydroxypropylcellulose) (HPC) 94 % of control

Clc1ccnc(Cl)n1
inactive: [1] 97 % of control | [10] 96 % of control | [2] 101 % of control | [11] 96 % of control | [3] 97 % of control | [12] 97 % of control

CCCCCCCCCCCC[n+]1ccc2ccccc2c1
inactive: dose: 0.05 mg/kg/injection, schedule: Q01DX001 (ip), vehicle: saline 97 % of control | dose: 0.1 mg/kg/injection, schedule: Q01DX001 (ip), vehicle: saline 105 % of control | dose: 0.2 mg/kg/injection, schedule: Q01DX001 (ip), vehicle: saline 100 % of control | dose: 0.4 mg/kg/injection, schedule: Q01DX001 (ip), vehicle: saline 102 % of control | dose: 0.5 mg/kg/injection, schedule: Q01DX001 (ip), vehicle: saline 106 % of control | dose: 0.8 mg/kg/injection, schedule: Q01DX001 (ip), vehicle: saline 100 % of control | dose: 1.0 mg/kg/injection, schedule: Q01DX001 (ip), vehicle: saline 104 % of control | dose: 2.0 mg/kg/injection, schedule: Q01DX001 (ip), vehicle: carboxymethylcellulose (CMC) 109 % of control | dose: 2.0 mg/kg/injection, schedule: Q01DX001 (ip), vehicle: saline 104 % of control | dose: 4.0 mg/kg/injection, schedule: Q01DX001 (ip), vehicle: carboxymethylcellulose (CMC) 96 % of control and 97 % of control | dose: 4.0 mg/kg/injection, schedule: Q01DX001 (ip), vehicle: saline 103 % of control | dose: 8.0 mg/kg/injection, schedule: Q01DX001 (ip), vehicle: carboxymethylcellulose (CMC) 90 % of control and 91 % of control | dose: 8.0 mg/kg/injection, schedule: Q01DX001 (ip), vehicle: saline 96 % of control | dose: 16.0 mg/kg/injection, schedule: Q01DX001 (ip), vehicle: carboxymethylcellulose (CMC) 102 % of control | dose: 8.0 micrograms/kg/injection, schedule: Q01DX015 (ip), vehicle: saline 88 % of control | dose: 16.0 micrograms/kg/injection, schedule: Q01DX015 (ip), vehicle: saline 92 % of control | dose: 32.0 micrograms/kg/injection, schedule: Q01DX015 (ip), vehicle: saline 96 % of control | dose: 64.0 micrograms/kg/injection, schedule: Q01DX015 (ip), vehicle: saline 91 % of control

c1c[nH]c(Cc2ccc3ccccc3c2)c1
inactive: dose: 100.0 mg/kg/injection, schedule: Q01DX009 (ip), vehicle: other 110 % of control | dose: 100.0 mg/kg/injection, schedule: Q04DX003 (ip), vehicle: other 102 % of control | dose: 200.0 mg/kg/injection, schedule: Q01DX009 (ip), vehicle: other 97 % of control | dose: 200.0 mg/kg/injection, schedule: Q04DX003 (ip), vehicle: other 101 % of control | dose: 400.0 mg/kg/injection, schedule: Q01DX009 (ip), vehicle: other 110 % of control | dose: 400.0 mg/kg/injection, schedule: Q04DX003 (ip), vehicle: other 102 % of control

O=C(C(Br)C(Br)c1ccccc1)N1CCOCC1 (centres undefined)
inactive: dose: 100.0 mg/kg/injection, schedule: Q01DX009 (ip), vehicle: saline sonified 108 % of control | [10] 109 % of control | dose: 200.0 mg/kg/injection, schedule: Q01DX009 (ip), vehicle: saline sonified 101 % of control | [11] 100 % of control | dose: 400.0 mg/kg/injection, schedule: Q01DX009 (ip), vehicle: saline sonified 95 % of control | [12] 98 % of control

COc1ccc(C)cc1NC(=O)NC(C)=O
inactive: dose: 50.0 mg/kg/injection, schedule: Q01DX009 (ip), vehicle: saline with Tween-80 92 % of control | [13] 88 % of control | [14] 95 % of control

S=c1[nH]cc2cnccn12
inactive: [13] 103 % of control | [7] 98 % of control | [14] 100 % of control | [8] 100 % of control | [9] 89 % of control

CCCCN1C(=O)CCC1=O
inactive: [10] 110 % of control | [11] 103 % of control | [12] 110 % of control

CC(C)COC(=O)C(C)OC(=O)OCCOCCOC(=O)OC(C)C(=O)OCC(C)C (centres undefined)
inactive: [4] 100 % of control | [5] 102 % of control | [6] 100 % of control

COC(=O)[CH]([Hg][CH](C(=O)OC)C(=O)OC)C(=O)OC
inactive: dose: 3.12 mg/kg/injection, schedule: Q04DX002 (ip), vehicle: Klucel (hydroxypropylcellulose) (HPC) 88 % of control | dose: 6.25 mg/kg/injection, schedule: Q04DX002 (ip), vehicle: Klucel (hydroxypropylcellulose) (HPC) 98 % of control | dose: 12.5 mg/kg/injection, schedule: Q04DX002 (ip), vehicle: Klucel (hydroxypropylcellulose) (HPC) 91 % of control
